By EC50 is commonly meant the concentration that produces a half-maximal response. The term IC50 denotes the midpoint of a concentration-inhibition curve. High values mean lower potency, low ones higher potency.

The values that follow come from patent US20250320213A1, “Nitrogen-Containing Heterocyclic Compounds” (Pfizer Inc., priority 2024, published 2025).

One test deals with T1, STAT6 (Homo sapiens, UniProt P42226).
T1 construct: stably transfected HaCaT keratinocyte cell line, which expresses NanoLuc luciferase reporter gene under the transcriptional control of the STAT6 responsive promoter; endogenous in cells; host or cells: HaCaT keratinocyte reporter cell line (stably transfected with a NanoLuc reporter)
T1 sequence (P42226 1-847): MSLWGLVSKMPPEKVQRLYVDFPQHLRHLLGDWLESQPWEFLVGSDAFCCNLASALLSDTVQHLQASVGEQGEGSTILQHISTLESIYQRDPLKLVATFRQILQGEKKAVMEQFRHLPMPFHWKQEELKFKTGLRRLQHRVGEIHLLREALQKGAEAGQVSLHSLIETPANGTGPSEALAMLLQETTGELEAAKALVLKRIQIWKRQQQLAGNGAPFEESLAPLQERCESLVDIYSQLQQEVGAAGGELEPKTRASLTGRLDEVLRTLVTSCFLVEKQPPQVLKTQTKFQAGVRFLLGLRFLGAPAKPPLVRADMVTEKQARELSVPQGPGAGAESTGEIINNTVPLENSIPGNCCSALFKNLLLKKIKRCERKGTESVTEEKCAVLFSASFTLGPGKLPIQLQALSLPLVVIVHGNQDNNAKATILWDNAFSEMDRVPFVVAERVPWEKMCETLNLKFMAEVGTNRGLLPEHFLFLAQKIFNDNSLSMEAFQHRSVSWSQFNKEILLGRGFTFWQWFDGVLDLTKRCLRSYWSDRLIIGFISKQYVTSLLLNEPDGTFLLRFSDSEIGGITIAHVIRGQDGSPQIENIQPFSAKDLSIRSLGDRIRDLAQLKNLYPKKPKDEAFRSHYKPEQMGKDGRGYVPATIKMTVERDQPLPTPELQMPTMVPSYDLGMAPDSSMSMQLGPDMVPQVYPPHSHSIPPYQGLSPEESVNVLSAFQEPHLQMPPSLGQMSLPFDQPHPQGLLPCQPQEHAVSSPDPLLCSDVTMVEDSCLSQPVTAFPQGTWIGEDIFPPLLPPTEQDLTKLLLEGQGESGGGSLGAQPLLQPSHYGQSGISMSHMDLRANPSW
Description: STAT6 Reporter Luciferase Assay (IL-13 stimulated HaCaT keratinocyte NanoLuc reporter cells). In kind it is cell-based. The settings on record: IL-13 stimulated HaCaT STAT6 NanoLuc reporter cells; read-out: Reporter EC50. The gist of the method:
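Compounds were tested as 11-point, 4-fold series in duplicate, applied for 2 h at 37 °C in low-serum (2% FBS) DMEM. The cells were a stable HaCaT line with NanoLuc under a STAT6-responsive IL-13Ra2 promoter. After 4 h with 0.12 nM IL-13, Nano-Glo luminescence was measured.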

Test [1] concerns CCL17 secretion in peripheral human whole blood. Description: Human Whole Blood (HWB) CCL17 TR-FRET Assay (IL-13 stimulated CCL17 secretion). It counts as cell-based. The settings on record: Homo sapiens, 48 h, human whole blood, IL-13 stimulated. The gist of the method: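 IC50 comes from serum CCL17 measured by a TR-FRET sandwich assay (16 h at room temperature, 665/615 nm ratio). Beforehand, blood in sodium heparin was exposed to an 11-point, 3-fold compound series for 2 h at 37°C and then to 10 ng/mL IL-13 for 48 h.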
For orientation: In TR-FRET formats the signal depends on donor and acceptor labels being close together.

Consider `CNC(=O)Cc1ccc(N2CCc3c(c(C(=O)NCc4ccc(NC(=O)N(C)C)cc4)nn3C(C)C)C2)nc1` [Example 337, N-(4-(3,3-dimethylureido)benzyl)-1-isopropyl-5-(5-(2-(methylamino)-2-oxoethyl)pyridin-2-yl)-4,5,6,7-tetrahydro-1H-pyrazolo[4,3-c]pyridine-3-carboxamide], for which, on STAT6, the EC50 came out at 5370 nM. In addition, in test [1], the IC50 was over 20500 nM.
Take `CC(C)n1nc(C(=O)NCc2ccc(NC(=O)N(C)C)cc2)c2c1CCN(c1ccc(C3COC3)cn1)C2` [Example 338, N-(4-(3,3-Dimethylureido)benzyl)-1-isopropyl-5-(5-(oxetan-3-yl)pyridin-2-yl)-4,5,6,7-tetrahydro-1H-pyrazolo[4,3-c]pyridine-3-carboxamide]: the half-maximal effective concentration (EC50) at STAT6 was found to be 3110 nM. In test [1], this compound came in with an IC50 of over 30000 nM.
Consider `CC(C)n1nc(C(=O)NCc2ccc(NC(=O)N(C)C)cc2)c2c1[C@@H](C)CN(c1ncc(-c3nccn3C)cn1)C2` [Example 340, (S)-N-(4-(3,3-dimethylureido)benzyl)-1-isopropyl-7-methyl-5-(5-(1-methyl-1H-imidazol-2-yl)pyrimidin-2-yl)-4,5,6,7-tetrahydro-1H-pyrazolo[4,3-c]pyridine-3-carboxamide], for which the EC50 on STAT6 came to 276 nM. For the same compound, 2340 nM corresponded to half-maximal inhibition in test [1] (IC50).
For `CNC(=O)c1ccc(CNC(=O)c2nn(C(C)C)c3c2CN(c2ccc(C(=O)N(C)C)cn2)C[C@@H]3C)cc1` [Example 341, (S)-5-(5-(dimethylcarbamoyl)pyridin-2-yl)-1-isopropyl-7-methyl-N-(4-(methylcarbamoyl)benzyl)-4,5,6,7-tetrahydro-1H-pyrazolo[4,3-c]pyridine-3-carboxamide] the same measures were 4 nM and 28 nM.
Turning to `CC(C)n1nc(C(=O)NCc2ccc(C(N)=O)cc2)c2c1[C@@H](C)CN(c1ccc(C(=O)N(C)C)cn1)C2` [Example 342, (S)-N-(4-carbamoylbenzyl)-5-(5-(dimethylcarbamoyl)pyridin-2-yl)-1-isopropyl-7-methyl-4,5,6,7-tetrahydro-1H-pyrazolo[4,3-c]pyridine-3-carboxamide], the EC50 on STAT6 came to 3 nM. The compound also gave an IC50 in test [1] of 15 nM.
With `CC(C)n1nc(C(=O)NCc2ccc(-c3ncc[nH]3)cc2)c2c1[C@@H](C)CN(c1ccc(C(=O)N(C)C)cn1)C2` [Example 343, (S)-N-(4-(1H-imidazol-2-yl)benzyl)-5-(5-(dimethylcarbamoyl)pyridin-2-yl)-1-isopropyl-7-methyl-4,5,6,7-tetrahydro-1H-pyrazolo[4,3-c]pyridine-3-carboxamide], at STAT6, the EC50 came to 1 nM. This compound returned an IC50 in test [1] of 9 nM.
For `CC(C)n1nc(C(=O)NCc2ccc(NC(=O)N(C)C)cc2)c2c1[C@@H](C)CN(c1ncc(C(=O)N3Cc4cccnc4C3)cn1)C2` [Example 346, (S)-5-(5-(6,7-dihydro-5H-pyrrolo[3,4-b]pyridine-6-carbonyl)pyrimidin-2-yl)-N-(4-(3,3-dimethylureido)benzyl)-1-isopropyl-7-methyl-4,5,6,7-tetrahydro-1H-pyrazolo[4,3-c]pyridine-3-carboxamide], in that order: 2 nM and 13 nM.
On to `CC(C)n1nc(C(=O)NCc2ccc(NC(=O)N(C)C)nc2)c2c1[C@@H](C)CN(c1ccc(C(=O)N(C)C)cn1)C2` [Example 349, (S)-5-(5-(dimethylcarbamoyl)pyridin-2-yl)-N-((6-(3,3-dimethylureido)pyridin-3-yl)methyl)-1-isopropyl-7-methyl-4,5,6,7-tetrahydro-1H-pyrazolo[4,3-c]pyridine-3-carboxamide], for which the EC50 on STAT6 amounted to 2 nM. The compound also yielded a 50% inhibitory concentration (IC50) in test [1] of 11 nM.
Consider `CC(C)n1nc(C(=O)NCc2ccc(NC(=O)N(C)C)cn2)c2c1[C@@H](C)CN(c1ccc(C(=O)N(C)C)cn1)C2` [Example 350, (S)-5-(5-(dimethylcarbamoyl)pyridin-2-yl)-N-((5-(3,3-dimethylureido)pyridin-2-yl)methyl)-1-isopropyl-7-methyl-4,5,6,7-tetrahydro-1H-pyrazolo[4,3-c]pyridine-3-carboxamide], for which, on STAT6, the concentration giving a half-maximal response (EC50) worked out at 2 nM. The compound also showed an IC50 in test [1] of 6 nM.
For `COc1nccc2c1CN(C(=O)c1ccc(N3CCc4c(c(C(=O)NCc5ccc(NC(=O)N(C)C)cc5)nn4C(C)C)C3)nc1)CC2` [Example 375, N-(4-(3,3-dimethylureido)benzyl)-1-isopropyl-5-(5-(8-methoxy-1,2,3,4-tetrahydro-2,7-naphthyridine-2-carbonyl)pyridin-2-yl)-4,5,6,7-tetrahydro-1H-pyrazolo[4,3-c]pyridine-3-carboxamide], the EC50 on STAT6 came to 15 nM. Also, the IC50 in test [1] was determined as 1960 nM.
For `COc1ccc2c(n1)CCN(C(=O)c1ccc(N3CCc4c(c(C(=O)NCc5ccc(NC(=O)N(C)C)cc5)nn4C(C)C)C3)nc1)C2` [Example 384, N-(4-(3,3-dimethylureido)benzyl)-1-isopropyl-5-(5-(2-methoxy-5,6,7,8-tetrahydro-1,6-naphthyridine-6-carbonyl)pyridin-2-yl)-4,5,6,7-tetrahydro-1H-pyrazolo[4,3-c]pyridine-3-carboxamide], in that order: 15 nM and 1070 nM.
As for `CCn1nc(C(=O)NCc2ccc(C(=O)NC)cc2)c2c1[C@@H](C)CN(c1ccc(N3CCCC3=O)cn1)C2` [Example 388, (S)-1-ethyl-7-methyl-N-(4-(methylcarbamoyl)benzyl)-5-(5-(2-oxopyrrolidin-1-yl)pyridin-2-yl)-4,5,6,7-tetrahydro-1H-pyrazolo[4,3-c]pyridine-3-carboxamide], at STAT6, the EC50 came to 8 nM. In test [1], this compound showed a half-maximal inhibitory concentration (IC50) of 29 nM.
For `CCn1nc(C(=O)NCc2ccc(C(N)=O)cc2)c2c1[C@@H](C)CN(c1ccc(N3CCCC3=O)cn1)C2` [Example 389, (S)-N-(4-carbamoylbenzyl)-1-ethyl-7-methyl-5-(5-(2-oxopyrrolidin-1-yl)pyridin-2-yl)-4,5,6,7-tetrahydro-1H-pyrazolo[4,3-c]pyridine-3-carboxamide] the same measures were 6 nM and 17 nM.
For `CC(C)n1nc(C(=O)NCc2ccc(C(N)=O)cc2)c2c1[C@@H](C)CN(c1ccc(C(=O)N3Cc4cccnc4C3)cn1)C2` [Example 395, (S)—N-(4-Carbamoylbenzyl)-5-(5-(6,7-dihydro-5H-pyrrolo[3,4-b]pyridine-6-carbonyl)pyridin-2-yl)-1-isopropyl-7-methyl-4,5,6,7-tetrahydro-1H-pyrazolo[4,3-c]pyridine-3-carboxamide], in that order: 1 nM and 6 nM.
For `CNC(=O)c1ccc(CNC(=O)c2nn(C(C)C)c3c2CN(c2ccc(C(=O)N4Cc5cccnc5C4)cn2)C[C@@H]3C)cc1` [Example 396, (S)-5-(5-(6,7-dihydro-5H-pyrrolo[3,4-b]pyridine-6-carbonyl)pyridin-2-yl)-1-isopropyl-7-methyl-N-(4-(methylcarbamoyl)benzyl)-4,5,6,7-tetrahydro-1H-pyrazolo[4,3-c]pyridine-3-carboxamide] the same measures were 1 nM and 15 nM.
On to `CCn1nc(C(=O)NCc2ccc(-c3nc(C)c[nH]3)cc2)c2c1[C@@H](C)CN(c1ncc(C(=O)N(C)C)cn1)C2` [Example 397, (S)-5-(5-(dimethylcarbamoyl)pyrimidin-2-yl)-1-ethyl-7-methyl-N-(4-(4-methyl-1H-imidazol-2-yl)benzyl)-4,5,6,7-tetrahydro-1H-pyrazolo[4,3-c]pyridine-3-carboxamide], for which the EC50 on STAT6 came out at 1 nM. The same compound gave a half-inhibitory concentration (IC50) in test [1] of 9 nM.
For `CCn1nc(C(=O)NCc2ccc(NC(=O)N3CCN(C)CC3)cc2)c2c1[C@@H](C)CN(c1ccc(C(=O)N(C)C)cc1)C2` [Example 398, (S)-5-(4-(dimethylcarbamoyl)phenyl)-1-ethyl-7-methyl-N-(4-(4-methylpiperazine-1-carboxamido)benzyl)-4,5,6,7-tetrahydro-1H-pyrazolo[4,3-c]pyridine-3-carboxamide], in that order: 0.3 nM and 7 nM.
